Experimental data reported in patent US20090068290A1, “BIFEPRUNOX DOSES FOR TREATING SCHIZOPHRENIA” (priority 2006, published 2009).

Experiments:
[1] = test system: CYP2C9, CYP3A4, CYP2D6; test: Metabolism and drug interactions of bifeprunox; settings: in vivo
From the text: The objective of this study is to assess the pharmacokinetics (PK) of bifeprunox. The PK of bifeprunox in healthy subjects were investigated based on a pooled analysis of PK parameters from 21 clinical pharmacology studies. The pooled analysis included PK profiles after single and multiple doses to 132 and 399 subjects, respectively, and explored the potential effects of age, gender, body weight, and race. In addition, PK in patients with schizophrenia were investigated using a population PK approach based on samples from 376 patients in phase II studies and 434 patients in phase III studies.

[2] = Pooled metabolic analysis, 6-week studies: body weight; settings: 6-week placebo controlled trials, BX total doses, RISP 6 mg, OLZ 15 mg, HAL 10 mg; for Weight, Mean (SD) change from baseline: endpoint
From the text: (§1) OBJECTIVE: To examine the metabolic effects of bifeprunox in patients with acute and stable schizophrenia.
(§2) METHODS: Metabolic data was compiled from one 6-month and four 6-week studies (i.e., a treatment period) of bifeprunox in patients with stable and acute schizophrenia, respectively. In the 6-month study, patients received bifeprunox (n=331) or placebo (PBO) (n=166). […] Metabolic evaluations included body weight, body mass index (BMI), plasma glucose and lipid profiles. Fasting glucose and lipid values were assessed in one 6-week study and in the 6-month study. Triglyceride:HDL ratio (TG:HDL) was calculated as a marker of insulin resistance. No statistical analyses were performed; only descriptive statistics are presented.

[3] = Pooled metabolic analysis, 6-week studies: lipid profile; settings: endpoint, 6-week studies, BX total, OLZ 15 mg
From the text: as §1, §2

[4] = Pharmacokinetic interaction of lithium and bifeprunox in healthy male subjects; type: in vivo, human
Method: Because bifeprunox may be used in combination with the mood-stabilizing drug lithium for the treatment of patients with psychoses and mood disorders, the effect of multiple doses of bifeprunox on the pharmacokinetic (PK) profile of lithium was evaluated. Lithium has a narrow therapeutic index that can complicate therapy, and serum levels greater than 1.5 mmol/L carry a greater risk of lithium toxicity than do lower levels.
METHODS: This was a single center, double-blind, randomized, placebo-controlled, parallel-design study in 48 healthy male subjects. All subjects were to receive open-label lithium (450 mg) twice daily on days 1 through 8 and, provided serum levels were stable on days 5 through 7, again on days 9 through 20. Subjects whose serum levels were stable on days 5 through 7 were included in those randomized to receive, in addition to lithium 450 mg twice daily, either placebo or a rising dose of bifeprunox (0.025-40 mg) once daily on days 9 through 17, and placebo or bifeprunox 40 mg on days 18 through 21. Only a single morning dose of lithium 450 mg was administered on day 21. Lithium, steady-state Cmax, AUC over the dosing interval (0-t), and renal clearance (CL-R) values were compared between the bifeprunox and placebo groups using ANCOVA with baseline values of lithium measured on day 8 as covariate.

[5] = non-fasting, RISP 6 mg, HAL 10 mg
[6] = lithium 450 mg twice daily with bifeprunox up to 40 mg once daily, healthy male subjects

Row | SMILES | PK of narrow therapeutic index compound on co-administration with bifeprunox [1] | ≧7% weight increase, (%) ([2]; baseline BMI 18.5-25 kg/m^2) | ≧7% weight increase, (%) ([2]; baseline BMI <18.5 kg/m^2) | ≧7% weight increase, (%) ([2]; baseline BMI >25-30 kg/m^2) | ≧7% weight increase, (%) ([2]; baseline BMI >30 kg/m^2) | ≧7% weight decrease, (%) ([2]; baseline BMI All) | ≧7% weight increase, (%) ([2]; baseline BMI All) | Weight, Mean (SD) change from baseline ([2]; baseline BMI 18.5-25 kg/m^2) | Weight, Mean (SD) change from baseline ([2]; baseline BMI <18.5 kg/m^2) | Weight, Mean (SD) change from baseline ([2]; baseline BMI >25-30 kg/m^2) | Weight, Mean (SD) change from baseline ([2]; baseline BMI >30 kg/m^2) | Weight, Mean (SD) change from baseline ([2]; baseline BMI All) | Total cholesterol, Mean change (SD) [3, 5] | Triglycerides, Mean change (SD) [3, 5] | further results
1 | CC(=O)CC(c1ccccc1)c1c(O)c2ccccc2oc1=O (centres unmarked) [warfarin, reference compound] | did not affect the PK of these compounds to any relevant extent | – | – | – | – | – | – | – | – | – | – | – | – | – | –
2 | Cc1nc2n(c(=O)c1CCN1CCC(c3noc4cc(F)ccc34)CC1)CCCC2 [RISP] | – | 7.3% | 20.0% | 13.3% | 8.5% | 0.4% | 9.8% | 1.5 (2.2) kg | 0.9 (2.3) kg | 2.1 (3.2) kg | 1.6 (4.2) kg | 1.7 (3.3) kg | −2.6 (0.8) mg/dL | −7.4 (1.4) mg/dL | ≧7% weight decrease, (%) ([2]; baseline BMI >30 kg/m^2): 1.2%
3 | Cc1cc2c(s1)Nc1ccccc1N=C2N1CCN(C)CC1 [OLZ] | – | 22.7% | 18.8% | 13.2% | 14.6% | – | – | 2.1 (2.7) kg | 1.0 (1.9) kg | 2.3 (2.5) kg | 3.3 (4.0) kg | 2.4 (3.1) kg | −0.7 (1.0) mg/dL | 24.6 (1.3) mg/dL | Fasting HDL, Mean change (SD) ([3]; fasting): −1.4 (9.2) mg/dL; Fasting HDL, Percentage mean change ([3]; fasting): −2.9%; Fasting LDL, Mean change (SD) ([3]; fasting): −0.3 (28.6) mg/dL; Fasting LDL, Percentage mean change ([3]; fasting): −0.3%; Total cholesterol, Mean change (SD) ([3]; fasting): −4.0 (37.3) mg/dL; Total cholesterol, Percentage mean change ([3]; fasting): −2.0%; Triglycerides, Mean change (SD) ([3]; fasting): −9.2 (90.4) mg/dL; Triglycerides, Percentage mean change ([3]; fasting): −5.3%
4 | O=C(CCCN1CCC(O)(c2ccc(Cl)cc2)CC1)c1ccc(F)cc1 [HAL] | – | 7.1% | – | – | – | 2.0% | 4.0% | −0.0 (2.2) kg | 1.4 (1.3) kg | −1.1 (1.8) kg | 0.4 (2.1) kg | −0.1 (2.1) kg | 0.1 (0.7) mg/dL | −2.7 (0.6) mg/dL | ≧7% weight decrease, (%) ([2]; baseline BMI 18.5-25 kg/m^2): 3.6%
5 | [Li] [lithium] | did not affect the PK of these compounds to any relevant extent | – | – | – | – | – | – | – | – | – | – | – | – | – | effect of co-administration of multiple doses of bifeprunox on lithium steady-state pharmacokinetics ([4]; human, in vivo): no clinically relevant effect; lithium renal clearance CL-R, treatment ratio (bifeprunox vs placebo group, geometric least square means) [4, 6]: 0.94; lithium steady-state AUC(0-t), treatment ratio (bifeprunox vs placebo group, geometric least square means) [4, 6]: 1.13; lithium steady-state Cmax, treatment ratio (bifeprunox vs placebo group, geometric least square means) [4, 6]: 1.11
